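Test compounds were applied to cells in 96-well plates for 48 hours at 5 doses. TGI: total growth inhibition.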
Tests used:
Experiment in all cases: NCI anticancer screen, dose series, 48 h
EKVX NSCLC = test system: EKVX NSCLC
CAKI-1 renal = test system: CAKI-1 renal
DLD-1 colon = test system: DLD-1 colon
CCRF-CEM leukemia = test system: CCRF-CEM leukemia
RXF 393 renal = test system: RXF 393 renal
IGROV1 ovarian = test system: IGROV1 ovarian
NCI-H226 lung = test system: NCI-H226 lung
DMS 273 small cell lung = test system: DMS 273 small cell lung
HCT-116 colon = test system: HCT-116 colon
OVCAR-8 ovarian = test system: OVCAR-8 ovarian
SR leukemia = test system: SR leukemia
RPMI-8226 leukemia = test system: RPMI-8226 leukemia
U251 CNS = test system: U251 CNS
UACC-62 melanoma = test system: UACC-62 melanoma
UO-31 renal = test system: UO-31 renal
SW-620 colon = test system: SW-620 colon
A498 renal = test system: A498 renal
KM12 colon = test system: KM12 colon
NCI-H522 lung = test system: NCI-H522 lung
M14 melanoma = test system: M14 melanoma
LOX IMVI melanoma = test system: LOX IMVI melanoma
SNB-78 CNS = test system: SNB-78 CNS
SK-MEL-28 melanoma = test system: SK-MEL-28 melanoma
TK-10 renal = test system: TK-10 renal
A549 NSCLC = test system: A549 NSCLC
KM20L2 colon = test system: KM20L2 colon
OVCAR-3 ovarian = test system: OVCAR-3 ovarian
MOLT-4 leukemia = test system: MOLT-4 leukemia
SF-295 CNS = test system: SF-295 CNS
LXFL 529 NSCLC = test system: LXFL 529 NSCLC
NCI-H460 lung = test system: NCI-H460 lung
HCT-15 colon = test system: HCT-15 colon
OVCAR-4 ovarian = test system: OVCAR-4 ovarian
SN12C renal = test system: SN12C renal
HT29 colon = test system: HT29 colon
SF-268 CNS = test system: SF-268 CNS
HCC-2998 colon = test system: HCC-2998 colon
NCI-H23 lung = test system: NCI-H23 lung
HOP-62 NSCLC = test system: HOP-62 NSCLC
SNB-19 CNS = test system: SNB-19 CNS
OVCAR-5 ovarian = test system: OVCAR-5 ovarian
HL-60(TB) leukemia = test system: HL-60(TB) leukemia
K-562 leukemia = test system: K-562 leukemia
786-0 renal = test system: 786-0 renal
SF-539 CNS = test system: SF-539 CNS
DMS 114 small cell lung = test system: DMS 114 small cell lung
SK-MEL-2 melanoma = test system: SK-MEL-2 melanoma
ACHN renal = test system: ACHN renal
COLO 205 colon = test system: COLO 205 colon
UACC-257 melanoma = test system: UACC-257 melanoma
SK-MEL-5 melanoma = test system: SK-MEL-5 melanoma
MALME-3M melanoma = test system: MALME-3M melanoma
SK-OV-3 ovarian = test system: SK-OV-3 ovarian

O=c1nc2[nH]nc(-c3ccccc3)c2n[nH]1
TGI (EKVX NSCLC): > 100 µM | TGI (CAKI-1 renal): > 100 µM | TGI (DLD-1 colon): > 100 µM | TGI (CCRF-CEM leukemia): > 100 µM | TGI (RXF 393 renal): > 100 µM | TGI (IGROV1 ovarian): > 100 µM | TGI (NCI-H226 lung): > 100 µM | TGI (DMS 273 small cell lung): > 100 µM | TGI (HCT-116 colon): > 100 µM | TGI (OVCAR-8 ovarian): > 100 µM | TGI (SR leukemia): > 100 µM | TGI (RPMI-8226 leukemia): > 100 µM | TGI (U251 CNS): > 100 µM | TGI (UACC-62 melanoma): > 100 µM | TGI (UO-31 renal): > 100 µM | TGI (SW-620 colon): > 100 µM | TGI (A498 renal): > 100 µM | TGI (KM12 colon): > 100 µM | TGI (NCI-H522 lung): > 100 µM | TGI (M14 melanoma): > 100 µM | TGI (LOX IMVI melanoma): > 100 µM | TGI (SNB-78 CNS): > 100 µM | TGI (SK-MEL-28 melanoma): > 100 µM | TGI (TK-10 renal): > 100 µM | TGI (A549 NSCLC): > 100 µM | TGI (KM20L2 colon): > 100 µM | TGI (OVCAR-3 ovarian): > 100 µM | TGI (MOLT-4 leukemia): > 100 µM | TGI (SF-295 CNS): > 100 µM | TGI (LXFL 529 NSCLC): > 100 µM | TGI (NCI-H460 lung): > 100 µM | TGI (HCT-15 colon): > 100 µM | TGI (OVCAR-4 ovarian): > 100 µM | TGI (SN12C renal): > 100 µM | TGI (HT29 colon): > 100 µM | TGI (SF-268 CNS): > 100 µM | TGI (HCC-2998 colon): > 100 µM | TGI (NCI-H23 lung): > 100 µM | TGI (HOP-62 NSCLC): > 100 µM | TGI (SNB-19 CNS): > 100 µM | TGI (OVCAR-5 ovarian): > 100 µM | TGI (HL-60(TB) leukemia): > 100 µM | TGI (K-562 leukemia): > 100 µM | TGI (786-0 renal): 52 µM | TGI (SF-539 CNS): 36.4 µM | TGI (DMS 114 small cell lung): > 100 µM | TGI (SK-MEL-2 melanoma): > 100 µM | TGI (ACHN renal): > 100 µM | TGI (COLO 205 colon): > 100 µM | TGI (UACC-257 melanoma): > 100 µM

COC(=O)[C@]1(C)CCC[C@]2(C)C3CC4OOC3(C=C4C(C)C)CCC21 (stereo partly specified)
TGI (EKVX NSCLC): 30.4 µM | TGI (CAKI-1 renal): 62.3 µM | TGI (DLD-1 colon): 29.1 µM | TGI (CCRF-CEM leukemia): 14 µM | TGI (IGROV1 ovarian): 35.7 µM | TGI (NCI-H226 lung): 35.4 µM | TGI (DMS 273 small cell lung): 34.5 µM | TGI (HCT-116 colon): 29 µM | TGI (OVCAR-8 ovarian): 41.8 µM | TGI (SR leukemia): 26.6 µM | TGI (RPMI-8226 leukemia): 36 µM | TGI (U251 CNS): 37.1 µM | TGI (UACC-62 melanoma): 32.3 µM | TGI (UO-31 renal): 30.3 µM | TGI (SW-620 colon): 34.8 µM | TGI (A498 renal): 23.5 µM | TGI (KM12 colon): 32.4 µM | TGI (NCI-H522 lung): 3.41 µM | TGI (M14 melanoma): 30.4 µM | TGI (LOX IMVI melanoma): 11.5 µM | TGI (SNB-78 CNS): 32.3 µM | TGI (TK-10 renal): 82.1 µM | TGI (SK-MEL-5 melanoma): 29.6 µM | TGI (A549 NSCLC): 33.9 µM | TGI (KM20L2 colon): 32 µM | TGI (OVCAR-3 ovarian): 76.6 µM | TGI (MOLT-4 leukemia): 49.8 µM | TGI (SF-295 CNS): 31.3 µM | TGI (LXFL 529 NSCLC): 27.2 µM | TGI (NCI-H460 lung): 25.7 µM | TGI (HCT-15 colon): 30.1 µM | TGI (OVCAR-4 ovarian): 45.7 µM | TGI (SN12C renal): 31.7 µM | TGI (HT29 colon): 29.4 µM | TGI (MALME-3M melanoma): 41.6 µM | TGI (SF-268 CNS): 30.1 µM | TGI (HCC-2998 colon): 30.4 µM | TGI (NCI-H23 lung): 32.8 µM | TGI (HOP-62 NSCLC): 61.5 µM | TGI (SNB-19 CNS): 31.3 µM | TGI (OVCAR-5 ovarian): 41.5 µM | TGI (HL-60(TB) leukemia): 4.15 µM | TGI (K-562 leukemia): 33.7 µM | TGI (786-0 renal): 17.6 µM | TGI (SF-539 CNS): 30.7 µM | TGI (DMS 114 small cell lung): 28 µM | TGI (SK-MEL-2 melanoma): 31.5 µM | TGI (SK-OV-3 ovarian): 34.4 µM | TGI (ACHN renal): 31.2 µM | TGI (COLO 205 colon): 39.4 µM | TGI (UACC-257 melanoma): 32 µM

Reference: PubChem BioAssay (NCI)
